Reference: ChEMBL document CHEMBL4507257, “Data for DCP probe ABT-100” (2021)

Columns and labels:
[1] = system: Tyrosine-protein kinase ABL1 (Homo sapiens), P00519 [Q252H]; conditions: Compound concentration 1000.0 nM
[2] = target: BMP-2-inducible protein kinase (Homo sapiens) (UniProt Q9NSY1); conditions: Compound concentration 1000.0 nM
[3] = system: Serine/threonine-protein kinase B-raf (Homo sapiens), P15056 [V600E]; conditions: Compound concentration 1000.0 nM
[4] = target: Calcium/calmodulin-dependent protein kinase kinase 1 (Homo sapiens) (UniProt Q8N5S9); conditions: Compound concentration 1000.0 nM
[5] = target: Calcium/calmodulin-dependent protein kinase kinase 2 (Homo sapiens) (UniProt Q96RR4); conditions: Compound concentration 1000.0 nM
Sequence of Calcium/calmodulin-dependent protein kinase kinase 2 (Homo sapiens) (Q96RR4 2-588 limits assumed): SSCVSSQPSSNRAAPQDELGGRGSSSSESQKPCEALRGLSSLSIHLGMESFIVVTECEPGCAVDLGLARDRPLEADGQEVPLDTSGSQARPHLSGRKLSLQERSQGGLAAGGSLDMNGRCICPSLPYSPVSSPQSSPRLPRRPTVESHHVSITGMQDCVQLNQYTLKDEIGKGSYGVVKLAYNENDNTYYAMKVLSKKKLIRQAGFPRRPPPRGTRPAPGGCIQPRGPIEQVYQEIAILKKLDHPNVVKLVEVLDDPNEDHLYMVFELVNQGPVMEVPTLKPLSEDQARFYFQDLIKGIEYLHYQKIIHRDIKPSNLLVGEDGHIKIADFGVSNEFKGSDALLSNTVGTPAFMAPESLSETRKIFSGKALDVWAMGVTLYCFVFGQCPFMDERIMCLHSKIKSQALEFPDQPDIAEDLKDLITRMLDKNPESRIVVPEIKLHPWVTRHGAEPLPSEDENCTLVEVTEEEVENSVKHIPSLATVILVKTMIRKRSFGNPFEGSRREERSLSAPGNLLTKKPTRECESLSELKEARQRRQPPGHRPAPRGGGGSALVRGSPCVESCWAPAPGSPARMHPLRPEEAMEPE

[6] = target: Cyclin-dependent kinase-like 5 (Homo sapiens) (UniProt O76039); conditions: Compound concentration 1000.0 nM
[7] = target: Serine/threonine-protein kinase 17A (Homo sapiens) (UniProt Q9UEE5); conditions: Compound concentration 1000.0 nM
[8] = system: Epidermal growth factor receptor (Homo sapiens), P00533 [UNDEFINED MUTATION]; conditions: Compound concentration 1000.0 nM
Sequence of Epidermal growth factor receptor (Homo sapiens), P00533 [UNDEFINED MUTATION] (P00533 whole entry, looked up, change not shown): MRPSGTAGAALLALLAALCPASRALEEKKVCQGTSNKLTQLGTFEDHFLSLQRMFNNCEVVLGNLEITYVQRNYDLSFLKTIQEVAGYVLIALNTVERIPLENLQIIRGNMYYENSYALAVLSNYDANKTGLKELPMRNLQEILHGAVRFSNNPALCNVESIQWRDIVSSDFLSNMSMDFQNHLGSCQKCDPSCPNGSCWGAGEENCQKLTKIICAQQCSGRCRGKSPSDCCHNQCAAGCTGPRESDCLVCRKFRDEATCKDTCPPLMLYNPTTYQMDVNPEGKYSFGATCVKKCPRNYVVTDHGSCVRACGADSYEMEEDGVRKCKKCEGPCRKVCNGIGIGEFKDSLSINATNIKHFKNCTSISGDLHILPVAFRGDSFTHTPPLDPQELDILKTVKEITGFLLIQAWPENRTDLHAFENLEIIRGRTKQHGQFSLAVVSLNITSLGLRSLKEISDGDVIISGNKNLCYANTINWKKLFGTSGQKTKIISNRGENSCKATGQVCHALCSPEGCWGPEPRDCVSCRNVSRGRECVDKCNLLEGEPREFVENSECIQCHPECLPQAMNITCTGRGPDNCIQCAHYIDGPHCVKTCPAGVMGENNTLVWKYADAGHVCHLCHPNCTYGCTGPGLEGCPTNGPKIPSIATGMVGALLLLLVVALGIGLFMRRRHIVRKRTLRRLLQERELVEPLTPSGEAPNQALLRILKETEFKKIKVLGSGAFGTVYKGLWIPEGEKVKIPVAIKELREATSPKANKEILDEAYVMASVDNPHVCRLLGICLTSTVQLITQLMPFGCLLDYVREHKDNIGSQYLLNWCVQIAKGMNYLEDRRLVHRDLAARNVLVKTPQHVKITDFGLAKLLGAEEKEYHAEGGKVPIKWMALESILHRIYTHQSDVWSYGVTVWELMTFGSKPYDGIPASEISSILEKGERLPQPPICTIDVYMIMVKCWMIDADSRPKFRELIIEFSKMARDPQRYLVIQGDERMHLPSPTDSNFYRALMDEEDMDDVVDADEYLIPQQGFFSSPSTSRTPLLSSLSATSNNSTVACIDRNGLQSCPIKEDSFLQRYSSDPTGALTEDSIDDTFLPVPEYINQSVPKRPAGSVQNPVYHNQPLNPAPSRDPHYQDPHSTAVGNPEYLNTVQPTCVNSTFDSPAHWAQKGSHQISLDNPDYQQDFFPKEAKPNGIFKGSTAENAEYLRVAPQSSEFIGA

[9] = target: Serine/threonine-protein kinase/endoribonuclease IRE1 (Homo sapiens) (UniProt O75460); conditions: Compound concentration 1000.0 nM
[10] = target: Fibroblast growth factor receptor 4 (Homo sapiens) (UniProt P22455); conditions: Compound concentration 1000.0 nM
Sequence of Fibroblast growth factor receptor 4 (Homo sapiens) (P22455 22-802 limits assumed): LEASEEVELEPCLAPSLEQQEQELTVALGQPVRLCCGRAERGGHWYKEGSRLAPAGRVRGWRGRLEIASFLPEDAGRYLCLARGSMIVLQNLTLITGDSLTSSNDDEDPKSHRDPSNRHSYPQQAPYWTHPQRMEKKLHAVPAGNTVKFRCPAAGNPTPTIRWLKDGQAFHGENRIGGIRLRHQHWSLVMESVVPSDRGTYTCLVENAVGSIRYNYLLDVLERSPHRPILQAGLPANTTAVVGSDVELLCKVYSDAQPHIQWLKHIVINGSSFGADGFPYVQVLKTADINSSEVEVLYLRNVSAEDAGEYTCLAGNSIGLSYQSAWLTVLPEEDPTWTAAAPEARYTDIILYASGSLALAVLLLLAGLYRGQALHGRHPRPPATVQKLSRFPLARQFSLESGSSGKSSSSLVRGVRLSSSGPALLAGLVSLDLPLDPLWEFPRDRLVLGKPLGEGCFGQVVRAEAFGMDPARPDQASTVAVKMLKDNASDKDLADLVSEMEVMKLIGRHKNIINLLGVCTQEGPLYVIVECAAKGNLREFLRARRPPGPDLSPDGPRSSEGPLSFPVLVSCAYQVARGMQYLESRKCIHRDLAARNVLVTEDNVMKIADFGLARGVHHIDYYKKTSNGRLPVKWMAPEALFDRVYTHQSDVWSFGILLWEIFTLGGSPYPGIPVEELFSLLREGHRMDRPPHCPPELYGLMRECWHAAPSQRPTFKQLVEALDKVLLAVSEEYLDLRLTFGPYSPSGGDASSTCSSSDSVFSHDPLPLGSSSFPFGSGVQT

[11] = system: Receptor-type tyrosine-protein kinase FLT3 (Homo sapiens), P36888 [D835H]; conditions: Compound concentration 1000.0 nM
[12] = target: Tyrosine-protein kinase Fyn (Homo sapiens) (UniProt P06241); conditions: Compound concentration 1000.0 nM
[13] = target: Cyclin-G-associated kinase (Homo sapiens) (UniProt O14976); conditions: Compound concentration 1000.0 nM
[14] = target: Rhodopsin kinase GRK1 (Homo sapiens) (UniProt Q15835); conditions: Compound concentration 1000.0 nM
[15] = target: Glycogen synthase kinase-3 alpha (Homo sapiens) (UniProt P49840); conditions: Compound concentration 1000.0 nM
[16] = target: Serine/threonine-protein kinase ICK (Homo sapiens) (UniProt Q9UPZ9); conditions: Compound concentration 1000.0 nM
[17] = target: Mitogen-activated protein kinase kinase kinase 13 (Homo sapiens) (UniProt O43283); conditions: Compound concentration 1000.0 nM
[18] = target: Mitogen-activated protein kinase kinase kinase 1 (Homo sapiens) (UniProt Q13233); conditions: Compound concentration 1000.0 nM
[19] = target: Serine/threonine-protein kinase MARK2 (Homo sapiens) (UniProt Q7KZI7); conditions: Compound concentration 1000.0 nM
Sequence of Serine/threonine-protein kinase MARK2 (Homo sapiens) (Q7KZI7 whole entry): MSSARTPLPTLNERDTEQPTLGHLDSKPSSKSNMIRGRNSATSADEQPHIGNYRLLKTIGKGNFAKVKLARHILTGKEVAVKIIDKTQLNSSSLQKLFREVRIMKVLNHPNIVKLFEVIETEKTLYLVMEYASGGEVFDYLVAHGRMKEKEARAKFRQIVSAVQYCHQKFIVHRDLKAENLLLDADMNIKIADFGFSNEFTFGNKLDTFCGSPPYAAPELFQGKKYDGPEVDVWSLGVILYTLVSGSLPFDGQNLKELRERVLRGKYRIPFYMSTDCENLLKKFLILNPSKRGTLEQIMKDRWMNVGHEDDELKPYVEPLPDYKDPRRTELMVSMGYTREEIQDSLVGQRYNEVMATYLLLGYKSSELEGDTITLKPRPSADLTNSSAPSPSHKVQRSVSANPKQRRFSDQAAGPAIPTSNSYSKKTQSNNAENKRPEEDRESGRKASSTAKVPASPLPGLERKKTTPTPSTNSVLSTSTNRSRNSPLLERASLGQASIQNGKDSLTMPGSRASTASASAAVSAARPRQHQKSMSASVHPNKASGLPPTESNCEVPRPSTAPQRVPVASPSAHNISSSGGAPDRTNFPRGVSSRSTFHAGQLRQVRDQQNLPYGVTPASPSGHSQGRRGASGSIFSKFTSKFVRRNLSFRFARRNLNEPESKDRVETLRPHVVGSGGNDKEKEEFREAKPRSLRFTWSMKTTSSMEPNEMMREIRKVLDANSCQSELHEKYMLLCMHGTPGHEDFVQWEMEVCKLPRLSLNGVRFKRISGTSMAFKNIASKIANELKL

[20] = target: MAP kinase-interacting serine/threonine-protein kinase 1 (Homo sapiens) (UniProt Q9BUB5); conditions: Compound concentration 1000.0 nM
[21] = target: Serine/threonine-protein kinase 4 (Homo sapiens) (UniProt Q13043); conditions: Compound concentration 1000.0 nM
[22] = target: Serine/threonine-protein kinase mTOR (Homo sapiens) (UniProt P42345); conditions: Compound concentration 1000.0 nM
[23] = target: Cyclin-dependent kinase 16 (Homo sapiens) (UniProt Q00536); conditions: Compound concentration 1000.0 nM
[24] = system: Phosphatidylinositol 4,5-bisphosphate 3-kinase catalytic subunit alpha isoform (Homo sapiens), P42336 [E542K]; conditions: Compound concentration 1000.0 nM
[25] = system: Phosphatidylinositol 4,5-bisphosphate 3-kinase catalytic subunit alpha isoform (Homo sapiens), P42336 [E545A]; conditions: Compound concentration 1000.0 nM
[26] = target: Serine/threonine-protein kinase PLK3 (Homo sapiens) (UniProt Q9H4B4); conditions: Compound concentration 1000.0 nM
[27] = target: Protein kinase C delta type (Homo sapiens) (UniProt Q05655); conditions: Compound concentration 1000.0 nM
[28] = target: cAMP-dependent protein kinase catalytic subunit PRKX (Homo sapiens) (UniProt P51817); conditions: Compound concentration 1000.0 nM
[29] = system: Proto-oncogene tyrosine-protein kinase receptor Ret (Homo sapiens), P07949 [M918T]; conditions: Compound concentration 1000.0 nM
[30] = system: Proto-oncogene tyrosine-protein kinase receptor Ret (Homo sapiens), P07949 [V804M]; conditions: Compound concentration 1000.0 nM
[31] = target: Serine/threonine-protein kinase RIO3 (Homo sapiens) (UniProt O14730); conditions: Compound concentration 1000.0 nM
Sequence of Serine/threonine-protein kinase RIO3 (Homo sapiens) (O14730 whole entry): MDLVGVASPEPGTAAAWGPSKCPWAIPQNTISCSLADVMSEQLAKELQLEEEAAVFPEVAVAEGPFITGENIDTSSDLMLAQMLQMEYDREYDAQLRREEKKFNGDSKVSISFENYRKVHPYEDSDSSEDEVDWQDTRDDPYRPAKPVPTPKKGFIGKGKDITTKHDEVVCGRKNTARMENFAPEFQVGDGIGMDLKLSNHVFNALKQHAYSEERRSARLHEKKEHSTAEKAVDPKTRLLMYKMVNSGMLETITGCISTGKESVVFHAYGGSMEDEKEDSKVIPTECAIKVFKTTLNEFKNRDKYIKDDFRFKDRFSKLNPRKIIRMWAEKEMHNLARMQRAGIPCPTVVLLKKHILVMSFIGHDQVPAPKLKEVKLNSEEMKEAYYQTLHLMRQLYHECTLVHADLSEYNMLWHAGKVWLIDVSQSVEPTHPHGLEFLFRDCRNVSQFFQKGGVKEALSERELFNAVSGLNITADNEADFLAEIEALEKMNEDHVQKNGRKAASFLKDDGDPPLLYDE

[32] = target: Receptor-interacting serine/threonine-protein kinase 4 (Homo sapiens) (UniProt P57078); conditions: Compound concentration 1000.0 nM
[33] = target: Rho-associated protein kinase 2 (Homo sapiens) (UniProt O75116); conditions: Compound concentration 1000.0 nM
[34] = target: Ribosomal protein S6 kinase alpha-6 (Homo sapiens) (UniProt Q9UK32); conditions: Compound concentration 1000.0 nM
[35] = target: Uncharacterized serine/threonine-protein kinase SBK3 (Homo sapiens) (UniProt P0C264); conditions: Compound concentration 1000.0 nM
[36] = target: NUAK family SNF1-like kinase 2 (Homo sapiens) (UniProt Q9H093); conditions: Compound concentration 1000.0 nM
[37] = target: Tyrosine-protein kinase Srms (Homo sapiens) (UniProt Q9H3Y6); conditions: Compound concentration 1000.0 nM
[38] = target: Transient receptor potential cation channel subfamily M member 6 (Homo sapiens) (UniProt Q9BX84); conditions: Compound concentration 1000.0 nM
[39] = target: Testis-specific serine/threonine-protein kinase 3 (Homo sapiens) (UniProt Q96PN8); conditions: Compound concentration 1000.0 nM
Sequence of Testis-specific serine/threonine-protein kinase 3 (Homo sapiens) (Q96PN8 whole entry): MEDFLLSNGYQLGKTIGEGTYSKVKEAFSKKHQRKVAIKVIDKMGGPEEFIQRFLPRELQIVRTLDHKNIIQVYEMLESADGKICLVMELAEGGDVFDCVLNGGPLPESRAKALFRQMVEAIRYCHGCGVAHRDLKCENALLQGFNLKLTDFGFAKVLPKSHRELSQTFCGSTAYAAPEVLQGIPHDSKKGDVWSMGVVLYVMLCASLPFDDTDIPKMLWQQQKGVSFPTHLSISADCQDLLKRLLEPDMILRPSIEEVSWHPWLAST

[40] = target: Phosphatidylinositol 3-kinase catalytic subunit type 3 (Homo sapiens) (UniProt Q8NEB9); conditions: Compound concentration 1000.0 nM
Sequence of Phosphatidylinositol 3-kinase catalytic subunit type 3 (Homo sapiens) (Q8NEB9 whole entry): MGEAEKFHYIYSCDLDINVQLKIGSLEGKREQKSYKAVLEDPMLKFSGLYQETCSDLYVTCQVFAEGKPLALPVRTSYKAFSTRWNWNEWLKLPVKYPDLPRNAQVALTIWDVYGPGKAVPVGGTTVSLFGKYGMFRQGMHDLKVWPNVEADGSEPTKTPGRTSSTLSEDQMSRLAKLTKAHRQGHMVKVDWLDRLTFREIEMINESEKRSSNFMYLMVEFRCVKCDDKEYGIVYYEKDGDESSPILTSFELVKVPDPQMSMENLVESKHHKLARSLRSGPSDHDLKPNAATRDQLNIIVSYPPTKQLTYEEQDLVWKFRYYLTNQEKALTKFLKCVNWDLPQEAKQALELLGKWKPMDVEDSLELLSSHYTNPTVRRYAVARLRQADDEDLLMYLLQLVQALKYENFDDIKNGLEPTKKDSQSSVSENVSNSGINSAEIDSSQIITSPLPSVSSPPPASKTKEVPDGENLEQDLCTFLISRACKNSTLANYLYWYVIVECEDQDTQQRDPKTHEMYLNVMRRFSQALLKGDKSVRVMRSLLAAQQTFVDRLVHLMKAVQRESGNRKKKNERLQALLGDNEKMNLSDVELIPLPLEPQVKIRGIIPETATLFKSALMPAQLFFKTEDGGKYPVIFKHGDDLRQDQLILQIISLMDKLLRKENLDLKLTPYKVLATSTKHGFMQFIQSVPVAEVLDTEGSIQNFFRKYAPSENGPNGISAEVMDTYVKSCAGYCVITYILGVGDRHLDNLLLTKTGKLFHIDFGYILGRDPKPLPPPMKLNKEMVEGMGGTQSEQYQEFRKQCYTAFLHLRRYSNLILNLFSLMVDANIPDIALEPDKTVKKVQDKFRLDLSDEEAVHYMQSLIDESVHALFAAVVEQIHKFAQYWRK

[41] = target: Serine/threonine-protein kinase VRK2 (Homo sapiens) (UniProt Q86Y07); conditions: Compound concentration 1000.0 nM
[42] = target: 5-hydroxytryptamine receptor 5A (Homo sapiens) (UniProt P47898); conditions: Compound concentration 10.0 uM
[43] = target: 5-hydroxytryptamine receptor 6 (Homo sapiens) (UniProt P50406); conditions: Compound concentration 10.0 uM
[44] = target: Mu-type opioid receptor (Homo sapiens) (UniProt P35372); conditions: Compound concentration 10.0 uM

Cn1cncc1[C@@](O)(COc1ccc(C#N)cc1-c1ccc(OC(F)(F)F)cc1)c1ccc(C#N)cc1 [A-108]
inactive: residual activity [1] 76% | residual activity [2] 79% | residual activity [3] 100% | residual activity [4] 100% | residual activity [5] 97% | residual activity [6] 93% | residual activity [7] 100% | residual activity [8] 100% | residual activity [9] 95% | residual activity [10] 100% | residual activity [11] 67% | residual activity [12] 97% | residual activity [13] 91% | residual activity [14] 100% | residual activity [15] 100% | residual activity [16] 75% | residual activity [17] 72% | residual activity [18] 100% | residual activity [19] 100% | residual activity [20] 81% | residual activity [21] 100% | residual activity [22] 100% | residual activity [23] 85% | residual activity [24] 81% | residual activity [25] 86% | residual activity [26] 88% | residual activity [27] 100% | residual activity [28] 94% | residual activity [29] 98% | residual activity [30] 98% | residual activity [31] 90% | residual activity [32] 94% | residual activity [33] 100% | residual activity [34] 94% | residual activity [35] 92% | residual activity [36] 100% | residual activity [37] 100% | residual activity [38] 100% | residual activity [39] 100% | residual activity [40] 100% | residual activity [41] 95% | inhibition [42] 0.81% | inhibition [43] 14.2% | inhibition [44] -3.25%

Cn1cncc1[C@](O)(COc1ccc(C#N)cc1-c1ccc(OC(F)(F)F)cc1)c1ccc(C#N)cc1 [ABT-100]
inactive: residual activity [1] 96% | residual activity [2] 97% | residual activity [3] 82% | residual activity [4] 77% | residual activity [5] 100% | residual activity [6] 100% | residual activity [7] 100% | residual activity [8] 93% | residual activity [9] 100% | residual activity [10] 100% | residual activity [11] 84% | residual activity [12] 100% | residual activity [13] 97% | residual activity [14] 95% | residual activity [15] 62% | residual activity [16] 100% | residual activity [17] 100% | residual activity [18] 90% | residual activity [19] 95% | residual activity [20] 68% | residual activity [21] 86% | residual activity [22] 57% | residual activity [23] 100% | residual activity [24] 80% | residual activity [25] 100% | residual activity [26] 89% | residual activity [27] 66% | residual activity [28] 87% | residual activity [29] 95% | residual activity [30] 99% | residual activity [31] 95% | residual activity [32] 100% | residual activity [33] 94% | residual activity [34] 91% | residual activity [35] 100% | residual activity [36] 100% | residual activity [37] 79% | residual activity [38] 100% | residual activity [39] 98% | residual activity [40] 91% | residual activity [41] 70% | inhibition [42] 1.81% | inhibition [43] 6.74% | inhibition [44] 16.4%
